The source of these data is the supplement of paper PMC10883282.

± gives the standard deviation of the averaged measurements.

The test concerns SW872. Description: relative viability vs DMSO control (72 h) (fraction); higher = more viable cells. In a few lines:
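Serially diluted compound, 2.5 µl from source plates spanning 10 mM to 0.0002 mM, was added 24 h after sarcoma cell lines were seeded in 384-well plates at densities targeting 80–90% confluence. Plates then sat 72 h at 37 °C, 5% CO2, with 0.1% DMSO vehicle and a 5 µM positive control. Relative viability came from ATPLite as percent growth, averaged over up to triplicate wells, and was rescaled with 1 as full and 0 as none.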

In the case of `C=CC(=O)Nc1cccc(Oc2nc(Nc3ccc(N4CCN(C)CC4)cc3)nc3ccsc23)c1` [Olmutinib], the relative viability reads like this: (0.00017 µM) 1.01 ± 0.04; (0.00051 µM) 1.03 ± 0.011; (0.00152 µM) 1.02 ± 0.029; (0.00457 µM) 1.03 ± 0.034; (0.01372 µM) 1.034 ± 0.0086; (0.04115 µM) 1.01 ± 0.044. This molecule displayed a relative viability (0.1235 µM) of 1.01 ± 0.011; a relative viability (0.3704 µM) of 1.02 ± 0.018; a relative viability (1.111 µM) of 1.011 ± 0.0092; a relative viability (3.333 µM) of 0.873 ± 0.05; a relative viability (10 µM) of 0.625 ± 0.015.
As for `CNC(=O)c1cc(Oc2ccc(NC(=O)Nc3ccc(Cl)c(C(F)(F)F)c3)c(F)c2)ccn1` [Regorafenib], the relative viability runs as follows: (0.00017 µM) 1.11 ± 0.07; (0.00051 µM) 1.12 ± 0.039; (0.00152 µM) 1.12 ± 0.034; (0.00457 µM) 1.14 ± 0.025; (0.01372 µM) 1.14 ± 0.017; (0.04115 µM) 1.119 ± 0.011. Also, the relative viability (0.1235 µM) came to 1.11 ± 0.013; the relative viability (0.3704 µM) stood at 1.07 ± 0.061; the relative viability (1.111 µM) worked out at 0.96 ± 0.027; the relative viability (3.333 µM) was 0.824 ± 0.058; the relative viability (10 µM) came to 0.662 ± 0.027.
For `COc1cc2c(cc1O)CCN[C@]21CS[C@@H]2c3c(OC(C)=O)c(C)c4c(c3[C@H](COC1=O)N1[C@@H]2[C@H]2c3c(cc(C)c(OC)c3O)C[C@@H]([C@@H]1O)N2C)OCO4` [Trabectedin], the relative viability runs as follows: (2 pM) 1.045 ± 0.0069; (5 pM) 0.986 ± 0.05; (15 pM) 0.835 ± 0.034; (50 pM) 0.606 ± 0.1; (0.00014 µM) 0.281 ± 0.028; (0.00041 µM) 0.158 ± 0.0096. The relative viability runs as follows: (0.0012 µM) 0.202 ± 0.01; (0.0037 µM) 0.245 ± 0.0073; (0.011 µM) 0.183 ± 0.0041; (200 fM) 1.03 ± 0.037; (600 fM) 1.038 ± 0.0094.
